{
  "source": "patent US9939427B2",
  "about": "“Method for evaluating the scent performance of perfumes or perfume mixtures” (Symrise AG, priority 2013, dated 2018)",
  "type_in_all_cases": "cell-based",
  "key": {"[1]": {"molecular_target": "T1, OR12D2 (Homo sapiens, UniProt P58182)", "T1 construct": "specific primers, which amplify the complete open reading frame; expressed in transfected cells; host or cells: HEK293", "T1 sequence (P58182 1-307)": "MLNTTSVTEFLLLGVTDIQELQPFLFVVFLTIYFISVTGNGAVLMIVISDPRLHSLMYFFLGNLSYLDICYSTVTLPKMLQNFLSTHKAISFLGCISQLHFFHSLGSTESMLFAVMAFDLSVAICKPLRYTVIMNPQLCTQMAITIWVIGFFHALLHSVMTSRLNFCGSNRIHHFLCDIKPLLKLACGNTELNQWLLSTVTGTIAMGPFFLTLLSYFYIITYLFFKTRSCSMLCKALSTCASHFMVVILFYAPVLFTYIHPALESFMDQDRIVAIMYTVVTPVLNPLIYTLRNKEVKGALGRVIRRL", "test": "Ca-imaging of OR12D2-transfected HEK293 cells", "set-up": "key: ▪: 18 olfactory receptors responded to 32 odorants in related with specific anosmia", "conditions": "individual odorant 200 μM, significant response p<0.05", "method": "In preparation for Ca-imaging measurements, transfected HEK293 cells were added 3 it Fura2/AM (3 μM) and incubated 30-45 min at 370 C, 5% CO2. After this step, experiments were carried out in a dark condition (Fura-2 is light-sensitive). […]"}, "[2]": {"molecular_target": "T2, OR52B4 (Homo sapiens, UniProt Q8NGK2)", "T2 construct": "specific primers, which amplify the complete open reading frame; expressed in transfected cells; host or cells: HEK293", "T2 sequence (Q8NGK2 1-314)": "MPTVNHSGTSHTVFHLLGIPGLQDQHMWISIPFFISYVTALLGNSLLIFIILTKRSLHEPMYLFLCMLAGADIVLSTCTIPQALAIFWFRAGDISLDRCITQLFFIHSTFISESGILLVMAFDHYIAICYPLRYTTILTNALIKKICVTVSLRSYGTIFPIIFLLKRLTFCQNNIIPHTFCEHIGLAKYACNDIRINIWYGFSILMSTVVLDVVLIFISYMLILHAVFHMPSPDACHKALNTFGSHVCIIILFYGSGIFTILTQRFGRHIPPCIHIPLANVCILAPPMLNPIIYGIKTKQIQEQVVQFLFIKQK", "test": "Ca-imaging of OR52B4-transfected HEK293 cells", "set-up": "key: ▪: 18 olfactory receptors responded to 32 odorants in related with specific anosmia", "conditions": "individual odorant 200 μM, significant response p<0.05", "protocol": "(§1) HEK293 cells were cultivated in Petri dishes (Ø35 mm) as previously described (Benbernou et al. 2007). We grow up HEK293 cells in culture medium containing standard DMEM with 10% heat-inactivated fetal bovine serum, 2 mM L-glutamine, 100 units/ml penicillin, and 100 units/ml streptomycin in a humidified atmosphere (37° C., 5% CO2). After 2-3 days, the transfection process was carried out, whereby the cell culture was 70-80% confluent. The calciumphosphate method was applied to transfect DNA plasmid transiently in HEK293 cells in case of Ca-imaging method.\n(§2) Calcium cations and phosphate anions created crystal precipitations coupled with DNA which could invade into the cells through endocytosis. Cells were transiently transfected with plasmid DNA which consists of pCI expression vector and PCR-amplified full-length cDNA of olfactory receptors candidates, and also Gα15, RTP1, Myr-Ric8A, HSC70, and m-Cherry as cofactors. The precipitation could be created after 15-20 min, with dropping the transfection solution on HEK293 cells. Before measuring by Ca-imaging cells were incubated 48-60 hours at 370 C, 5% CO2. Cationic liposome-mediated transfection method was applied to transfect DNA plasmid transiently in HANA3A cells in case of CRE-Luciferase and CRE-SEAP assays.\nCalcium imaging of the transfected HEK293 cells was done by using chambers determinate an inverted microscope (Olympus; IX70) using a 10× objective (CPIanFL N Olympus). Fluorescence emission was determined every 4 s by using a CCD camera (Charge Coupled Device, C9100 Hamamatsu). The capillary tube which was responsible to supply odorants was generated closely above the cells. The columns filled with odorants, DMSO and ATP. Odorants were manually monitored to drop each 4-5 s to transfected cells. Solutions with drop wise form spread on HEK293 cells in 35 mm dishes.\nIn experiments, Fura-2 Acetoxymethylester (Fura-2/AM) was applied. The non-polar Fura2/AM is fluorescent but not yet calcium-sensitive. Once diffuses into cell plasma, Fura-2/AM is hydrolyzed to Fura-2 which is calcium-sensitive and functions as Ca2+ chelator. Regardless of the presence of calcium, Fura-2 emits at the wavelength of 510 nm. […] According to this feature, the analysis of 340/380 nm excitation ratio for Fura-2 allows to quantify intracellular calcium levels. […]\n(§3) Ringer's solution was used for washing cells between measuring by two different odorants. Positive response was determined by the timing of the response, the strength of the response (more than twofold higher than the noise amplitude of the baseline), and the shape of the response curve (sharp rise in curve with gradual recovery). […]"}, "[3]": {"molecular_target": "T3, OR4K5 (Homo sapiens, UniProt Q8NGD3)", "T3 construct": "specific primers, which amplify the complete open reading frame; expressed in transfected cells; host or cells: HEK293", "T3 sequence (Q8NGD3 1-323)": "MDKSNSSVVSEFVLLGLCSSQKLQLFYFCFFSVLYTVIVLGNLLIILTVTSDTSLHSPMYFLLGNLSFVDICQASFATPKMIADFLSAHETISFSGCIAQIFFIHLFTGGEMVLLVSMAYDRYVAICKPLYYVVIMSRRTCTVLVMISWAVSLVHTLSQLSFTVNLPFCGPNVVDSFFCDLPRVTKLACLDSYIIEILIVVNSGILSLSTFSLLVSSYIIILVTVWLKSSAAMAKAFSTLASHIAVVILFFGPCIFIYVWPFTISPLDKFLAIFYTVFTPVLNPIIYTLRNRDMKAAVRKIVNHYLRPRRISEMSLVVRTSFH", "test": "Ca-imaging of OR4K5-transfected HEK293 cells", "set-up": "key to OR4K5 responded to odorant: ▪: 18 olfactory receptors responded to 32 odorants in related with specific anosmia", "conditions": "HEK293 cells, individual odorant 200 μM, significant response p<0.05", "protocol": "as §1\nas §2, with “Cationic liposome-mediated transfection method was applied to transfect DNA plasmid transiently in HANA3A cells in case of CRE-Luciferase and CRE-SEAP assays.” left out\n(§4) Calcium imaging of the transfected HEK293 cells was done by using chambers determinate an inverted microscope (Olympus; IX70) using a 10× objective (CPIanFL N Olympus). Fluorescence emission was determined every 4 s by using a CCD camera (Charge Coupled Device, C9100 Hamamatsu). […] Odorants were manually monitored to drop each 4-5 s to transfected cells. […]\n(§5) In experiments, Fura-2 Acetoxymethylester (Fura-2/AM) was applied. […] According to this feature, the analysis of 340/380 nm excitation ratio for Fura-2 allows to quantify intracellular calcium levels. […]\nas §3"}, "[4]": {"molecular_target": "T4, OR4P4 (Homo sapiens, UniProt Q8NGL7)", "T4 construct": "specific primers, which amplify the complete open reading frame; expressed in transfected cells; host or cells: HEK293", "T4 sequence (Q8NGL7 1-312)": "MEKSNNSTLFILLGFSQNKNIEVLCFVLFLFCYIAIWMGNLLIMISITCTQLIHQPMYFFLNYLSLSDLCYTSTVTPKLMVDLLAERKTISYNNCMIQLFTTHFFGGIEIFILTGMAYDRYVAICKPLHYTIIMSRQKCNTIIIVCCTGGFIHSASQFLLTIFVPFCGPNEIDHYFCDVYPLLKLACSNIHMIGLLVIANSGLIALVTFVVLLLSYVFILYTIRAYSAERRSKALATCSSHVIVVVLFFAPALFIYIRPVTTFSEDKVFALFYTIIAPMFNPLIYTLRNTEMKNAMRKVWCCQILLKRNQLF", "test": "Ca-imaging of OR4P4-transfected HEK293 cells", "set-up": "key to OR4P4 responded to odorant: ▪: 18 olfactory receptors responded to 32 odorants in related with specific anosmia", "conditions": "HEK293 cells, individual odorant 200 μM, significant response p<0.05", "protocol": "as §1\nas §2, with “Cationic liposome-mediated transfection method was applied to transfect DNA plasmid transiently in HANA3A cells in case of CRE-Luciferase and CRE-SEAP assays.” left out\nas §4, §5, §3"}},
  "data": [
    {"smiles": "CCC(=O)O", "note": "[Propionic acid]", "values": [
      {"measurement": "OR12D2 responded to odorant", "setting": "[1]", "result": "▪"}
    ]},
    {"smiles": "C=CC(=O)CCCCC", "note": "[1-Octan-3-One, 1-Octen-3-one]", "values": [
      {"measurement": "OR52B4 responded to odorant", "setting": "[2]", "result": "▪"}
    ]},
    {"smiles": "CO[C@]1(C)CC[C@@]23C[C@@H]1C(C)(C)[C@@H]2CC[C@H]3C", "note": "[Cedramber]", "values": [
      {"measurement": "OR4K5 responded to odorant", "setting": "[3]", "result": "▪"}
    ]},
    {"smiles": "CCCCCC(=O)O", "note": "[N-Hexanoic acid, NHexanoic acid]", "values": [
      {"measurement": "OR4P4 responded to odorant", "setting": "[4]", "result": "▪"}
    ]}
  ]
}
